Where “and” joins values, the source holds several entries; their conditions need not be identical. Equal entries are not always repeated.
Key:
KPC PDAC tumors = assay: Bulk modulus (stiffness) by unconfined compression testing of end-point KPC tumors; format: in vivo, mouse; design: key to Bulk modulus (stiffness) by unconfined compression testing: bulk elastic modulus in kPa; details: for tumor bulk modulus (stiffness): end-point KPC tumors; for Bulk modulus (stiffness) by unconfined compression testing: endpoint PDAC tumours, individual tumours
Experimental: Fig. 4 PXS-5505 administered in a KPC in vivo survival study. a, Schematic of the KPC in vivo survival study. Presence of a primary tumor in KPC mice was confirmed by two independent researchers (positive diagnosis) before commencement of daily treatment (Tx) on one of four treatment arms as follows: vehicle, 0.9% saline; Gem, twice-weekly gemcitabine (100 mg kg^−1 i.p.); PXS-5505, daily PXS-5505 at 20 mg kg^−1 i.p.; and PXS-5505 + Gem, daily PXS-5505 at 20 mg kg^−1 i.p. + twice-weekly gemcitabine (100 mg kg^−1 i.p.). b, Table of median survival (since diagnosis/commencement of treatment) across the four treatment groups (n = 30 biologically independent animals (vehicle), n = 31 biologically independent animals (Gem), n = 36 biologically independent animals (PXS-5505), n = 46 biologically independent animals (PXS-5505 + Gem)). c, Kaplan–Meier curves for overall survival across treatment arms (n = 30 biologically independent animals (vehicle), n = 31 biologically independent animals (Gem), n = 36 biologically independent animals (PXS-5505), n = 46 biologically independent animals (PXS-5505 + Gem)). P values determined by log-rank (Mantel–Cox) test. d, Representative maximum intensity projections of SHG multiphoton imaging for tumors from each treatment group (n = 1 FOV taken from one biologically independent animal per group) at end point (scale bars, 100 μm) and quantification of SHG peak signal intensity (n = 5 biologically independent animals per group and five FOV per animal). Data are mean ± s.d. […] Quantification of metastases (n = 18 biologically independent animals (vehicle), n = 18 biologically independent animals (Gem), n = 17 biologically independent animals (PXS-5505), n = 15 biologically independent animals (PXS-5505 + Gem)). Data are mean ± s.d.
Unconfined compression of in vivo tissue samples was carried out on 2–3-mm cross-sectional slices using a TA Instruments Dynamic Hybrid Rheometer (DHR-3, TA Instruments). Tissue samples were placed between upper and lower parallel plate geometries. A constant linear compressive rate of 5 µm s^−1 was applied to the samples and axial force (N) and gap (mm) were collected every 0.01 s. Data were processed and a stress–strain curve for each replicate was obtained. Bulk elastic modulus (kPa) was obtained as the gradient of the linear region of the stress–strain curve corrected for cross-sectional area of sample. Data points represent individual biological replicates.

APMA human PDX tumors = assay: APMA human PDX model, picrosirius red birefringence (Extended Data Fig. 5i); format: in vivo, mouse; details: for Quantification of green birefringent (nascent) collagen fibres: Extended Data 5I, human PDXs at endpoint, individual animals
Experimental: Subcutaneous PDX studies were performed by implanting early passage PDX pieces (~4 mm^3) or TKCC10 CCs (1.5 × 10^6 cells per mouse in 100 μl PBS/Matrigel 1:1) into female (PDX) or male (TKCC10) 8-week-old immunocompromised nude Balb/c-Fox1nuAusb mice subcutaneously on the left flank. For the duration of the study, mice were kept in conventional caging with environmental enrichment, access to standard chow, water ad libitum and 12-h light–dark cycle at ambient temperature and humidity. Treatment began when tumors reached 150 mm^3, where each mouse was randomized into a treatment group and administered gemcitabine HCl (100 mg kg^−1 in saline) (Jomar Life Research) or vehicle control (0.9% saline) by i.p. injection twice weekly on day 2 and 4 of the treatment cycle until an ethical end point was reached. These included maximal tumor mass ≥10% of body weight, weight loss ≥20% from maximum body weight or tumor interfering with mobility and affecting access to food and water. Animals with non-tumor-related complications that led to a premature end point were censored. […] Tumor size was monitored every second day by calipers. Tumor volume was calculated using the formula (length × width^2)/2. […]
For assessment of picrosirius red staining in KPC and APMA patient tumors, five representative regions of interest per section were analyzed for both brightfield and polarized light by a blinded reviewer using in-house automated analysis scripts as described previously[28],[34],[58] […]
Extended Data Fig. 5 PXS-5505 in combination with gemcitabine in vivo. a. […] Signal is defined as the enzyme activity in the aorta, while noise is measured in the presence of a high concentration (300 µM) BAPN to abolish any lysyl oxidase family activity. […] FITC-dextran (molecular weight: 10 kDa) signal quantification from KPC tumor end point from each treatment group (vehicle n = 3 biologically independent animals, PXS-5505 n = 5 biologically independent animals, Gem n = 5 biologically independent animals, PXS-5505 + Gem n = 5 biologically independent animals). […] P-values determined by Welchs t-test. […]

SMILES	tumor bulk modulus (stiffness) (KPC PDAC tumors)	Bulk modulus (stiffness) by unconfined compression testing (KPC PDAC tumors)	deposition of collagen I (picrosirius red birefringence) (APMA human PDX tumors; APMA human PDX, three rounds of treatment)	Quantification of green birefringent (nascent) collagen fibres (APMA human PDX tumors)
Nc1ccn([C@@H]2O[C@H](CO)[C@@H](O)C2(F)F)c(=O)n1 [Gem, gemcitabine]	20.0 kPa	26.381 and 11.231 and 14.142 and 18.28 and 20.014	increase in the deposition of collagen I	672.333 and 613 and 417.333 and 643.667 and 776 and 904.333 and 1865.67 and 529.667 and 397.667 and 278
Cl.Cl.NC/C=C(\F)CS(=O)(=O)c1cccc2cccnc12.O [PXS-5505, (Z)-3-fluoro-4-(quinolin-8-ylsulfonyl)but-2-en-1-amine dihydrochloride monohydrate]	moderate reduction in stiffness	1.01 and 4.478 and 8.389 and 5.347 and 1.487	–	61.6667 and 1138 and 246 and 184 and 80.3333 and 99.6667 and 1125.33 and 424.667 and 169.333 and 108

Source: publication PMC10518255, “A first-in-class pan-lysyl oxidase inhibitor impairs stromal remodeling and enhances gemcitabine response and survival in pancreatic cancer” (Nature Cancer, 2023)
